Experimental data reported in patent US10472334B2, “Small molecules for inhibiting male fertility” (The University of North Carolina at Chapel Hill, priority 2014, dated 2019).

Tested on: human spermatozoa
Assay: Intracellular free calcium in Fluo-4 loaded spermatozoa
Assay type: cell-based
Method: A series of experiments was performed to determine the mechanism of action of the compounds described herein. The experiments were carried out as described in O'Rand and Widgren, “Loss of Calcium in Human Spermatozoa via EPPIN, the Semenogelin Receptor,” Biology of Reproduction, (2012) 86(2):55, 1-7.
Fluo-4 AM-loaded spermatozoa were pipetted into 96-well black-walled plates (Perkin Elmer, Waltham, Mass.) at 1.13105-0.93105 spermatozoa/well in 50 μl of M16M at 378 C, and read in a BioTek (Winookski, Vt.) Synergy2 Multiplatform automated plate reader (with heater and shaker). Wells were excited using a 485/20 filter, and emission was read with a 528/20 filter, and data were acquired using a kinetic modification of the Alexafluor 488 protocol in the Gen5 software program (BioTek). […] After treatment of spermatozoa in each well with control or test reagents was completed (10-15 min), the Fluo-4 in the spermatozoa in each well was calibrated by adding ionomycin (2.5 μM), followed 15 min later by the addition of Mn^2 (2 mM MnCl2) to bring the fluorescence (F) to 30% of that of the saturated dye. […] Using these values for each well, the Fmax and Fmin were calculated according to the method of Kao et al. [Kao et al., J Biol Chem. 1989; 264:8179-8184.].
Fluorescence measurements were converted to calcium concentration according to the equation [Ca^2+]=Kd([F−Fmin]/[Fmax−F]) […]

CCOC(=O)CSc1nc(NNC(=O)OC)nc(Nc2ccc(NC(=O)OC)c(O)c2)n1 [TZ4_121, [4-(3-Hydroxy-4-methoxycarbonylamino-phenylamino)-6-(N′methoxycarbonyl-hydrazino)-1,3,5-triazin-2-ylsulfanyl]-acetic acid ethyl ester]
change in intracellular calcium of spermatozoa: significant loss of calcium
